≈ marks a conversion by molar mass, not a printed value.
Assays:
A-549 = assay: MTT cytotoxicity test, A-549; assay type: cell-based, human; conditions: 72 hours; for IC50 A-549: lung cancer cell line
Procedure: (§1) The bioactivities of the 25 new withanolide compounds of the present invention are further studied. The bioactivities are measured by examining cytotoxicity tests with 5 human cancer cell lines, including MCF-7 and MDA-MB-231 (which are the breast cancer cell lines), Hep G2 and Hep 3B (which are the liver cancer cell line), and A549 (which is lung cancer cell line). In addition, a normal human lung cell line (MRC-5) is served as the control group. All human cancer cell lines come from the American Type Culture Collection. The respective cell lines are cultured in RPMI-1640 medium with 10% (v/v) fetal calf serum, 100 U/ml penicillin and 100 µg/ml streptomycin, and incubated at 37° C. in 5% CO2 atmosphere.
(§2) In the present invention, the cytotoxicity tests are performed with MTT (3-(4,5-dimethyl-thiazol-2-yl)-2,5-diphenyl tetrazolium bromide) method. The five cancer cell lines and the normal cell line (MRC-5) are firstly incubated in a 96-well culture dish with concentrations of 5,000˜10,000 cells/well. In Day 2, the respective incubated cells are added with the withanolide compounds of the present invention and Doxorubicin and are incubated for additional 72 hours. Afterwards, the incubated cells are examined with the MTT method including steps of dissolving the incubated cells in DMSO, and determining the absorbance of each cell line to each compound by a microplate reader in 550 nm to evaluate the cytotoxicity of each compound to each cell line. […] The IC50 represents the concentration of the compound that is required for 50% inhibition of the cell growth, and Doxorubicin serves as the positive control group.

Hep 3B = assay: MTT cytotoxicity test, Hep 3B; assay type: cell-based, human; conditions: liver cancer cell line, 72 hours
Procedure: as §1, §2

MCF-7 = assay: MTT cytotoxicity test, MCF-7; assay type: cell-based, human; conditions: 72 hours; for IC50 MCF-7: breast cancer cell line
Procedure: as §1, §2

Hep G2 = assay: MTT cytotoxicity test, Hep G2; assay type: cell-based, human; conditions: 72 hours; for IC50 Hep G2: liver cancer cell line
Procedure: as §1, §2

MDA-MB-231 = assay: MTT cytotoxicity test, MDA-MB-231; assay type: cell-based, human; conditions: 72 hours; for IC50 MDA-MB-231: breast cancer cell line
Procedure: as §1, §2

MRC-5 = assay: MTT cytotoxicity test, normal lung cell line MRC-5; assay type: cell-based; conditions: 72 hours; for IC50 MRC-5: normal human lung cell line
Procedure: as §1, §2

Row | SMILES | IC50 A-549 (A-549) | IC50 Hep 3B (Hep 3B) | IC50 MCF-7 (MCF-7) | IC50 Hep G2 (Hep G2) | IC50 MDA-MB-231 (MDA-MB-231) | IC50 MRC-5 (MRC-5) | IC50 (A-549; Homo sapiens, A549, lung cancer cell line) | IC50 (Hep 3B; Homo sapiens, Hep3B) | IC50 (MCF-7; Homo sapiens, MCF7, breast cancer cell line) | IC50 (Hep G2; Homo sapiens, HepG2, liver cancer cell line) | IC50 (MDA-MB-231; Homo sapiens, MDA-MB-231, breast cancer cell line) | IC50 (MRC-5; MRC5, normal human lung cell line)
1 | CC1=C(C)C(=O)O[C@@H]([C@](C)(O)[C@@]23O[C@@H]2C[C@H]2[C@@H]4C[C@H]5O[C@]56[C@@H](O)C=CC(=O)[C@]6(C)[C@H]4CC[C@@]23C)C1 [Compound 9, 20-Hydroxytubocapsanolide A] | 1.42 µg/mL (≈ 2.93 µM) | 0.99 µg/mL (≈ 2.04 µM) | 1.77 µg/mL (≈ 3.65 µM) | 0.73 µg/mL (≈ 1.51 µM) | 0.99 µg/mL (≈ 2.04 µM) | 1.36 µg/mL (≈ 2.81 µM) | – | – | – | – | – | –
2 | CC1=C(CO)C(=O)O[C@@H]([C@@H](C)[C@H]2CC[C@H]3[C@@H]4C[C@H]5O[C@]56[C@@H](O)C=CC(=O)[C@]6(C)[C@H]4CC[C@]23C)C1 [withaferin A, reference compound] | 0.02 µg/mL (≈ 0.0425 µM) | 0.06 µg/mL (≈ 0.127 µM) | 0.05 µg/mL (≈ 0.106 µM) | 0.06 µg/mL (≈ 0.127 µM) | 0.02 µg/mL (≈ 0.0425 µM) | 0.07 µg/mL (≈ 0.149 µM) | – | – | – | – | – | –
3 | C[C@]1(O)C[C@H]2OC(=O)[C@]1(C)C[C@H]2[C@@]1(O)[C@H](O)C[C@H]2[C@@H]3C[C@H](Cl)[C@]4(O)[C@@H](O)C=CC(=O)[C@]4(C)[C@H]3CC[C@@]21C [Compound 25, Tubonolide A] | 5.91 µg/mL (≈ 11 µM) | 6.54 µg/mL (≈ 12.1 µM) | 12.03 µg/mL (≈ 22.3 µM) | 5.09 µg/mL (≈ 9.44 µM) | >20 µg/mL | – | – | – | – | – | – | –
4 | CC1=C(C)C(=O)O[C@@H]([C@@H](C)[C@@]2(C)C3=C(C[C@H]2O)[C@@H]2C[C@H](Cl)[C@]4(O)[C@@H](O)C=CC(=O)[C@]4(C)[C@H]2CC3)C1 [Compound 7, Tubocapsenolide G] | 19.94 µg/mL (≈ 39.5 µM) | >20 µg/mL | >20 µg/mL | 19.12 µg/mL (≈ 37.9 µM) | >20 µg/mL | – | – | – | – | – | – | –
5 | CC1=C(C)C(=O)O[C@@H]([C@@H](C)[C@@]2(O)CC[C@H]3[C@@H]4C[C@H]5O[C@]56[C@@H](O)C=CC(=O)[C@]6(C)[C@H]4CC[C@@]32C)C1 [Compound 14, Tubocapsanolide F] | 0.88 µg/mL (≈ 1.87 µM) | 0.80 µg/mL (≈ 1.7 µM) | 1.98 µg/mL (≈ 4.21 µM) | 0.64 µg/mL (≈ 1.36 µM) | 0.99 µg/mL (≈ 2.1 µM) | 0.81 µg/mL (≈ 1.72 µM) | – | – | – | – | – | –
6 | COC1CC(=O)[C@]2(C)[C@H]3CC[C@]4(C)C([C@@](C)(O)[C@H]5CC(C)=C(C)C(=O)O5)=CC[C@H]4[C@@H]3C[C@H]3O[C@]32[C@H]1O (stereo partly drawn) [Compound 18, Tubocapsanolide H] | 7.50 µg/mL (≈ 15 µM) | 2.65 µg/mL (≈ 5.29 µM) | 9.27 µg/mL (≈ 18.5 µM) | 3.67 µg/mL (≈ 7.33 µM) | 4.82 µg/mL (≈ 9.63 µM) | 15.23 µg/mL (≈ 30.4 µM) | – | – | – | – | – | –
7 | CC1=C(C)C(=O)O[C@@H]([C@@H](C)[C@@]2(O)CC[C@H]3[C@@H]4C[C@H](O)[C@]5(O)[C@@H](O)C=CC(=O)[C@]5(C)[C@H]4CC[C@@]32C)C1 [Compound 13, Tubocapsanolide D] | 8.01 µg/mL (≈ 16.4 µM) | 7.19 µg/mL (≈ 14.7 µM) | >20 µg/mL | >20 µg/mL | 13.49 µg/mL (≈ 27.6 µM) | – | – | – | – | – | – | –
8 | C[C@@]12CC([C@@]3(O)CC[C@H]4[C@@H]5C[C@H]6O[C@]67[C@@H](O)C=CC(=O)[C@]7(C)[C@H]5CC[C@@]43C)[C@@H](C1)OC(=O)[C@]2(C)O (stereo partly drawn) [Compound 19, Anomanolide A] | 1.01 µg/mL (≈ 2.08 µM) | 3.63 µg/mL (≈ 7.46 µM) | 2.31 µg/mL (≈ 4.75 µM) | 3.11 µg/mL (≈ 6.39 µM) | 1.37 µg/mL (≈ 2.82 µM) | 1.91 µg/mL (≈ 3.93 µM) | – | – | – | – | – | –
9 | COc1cccc2c1C(=O)c1c(O)c3c(c(O)c1C2=O)C[C@@](O)(C(=O)CO)C[C@@H]3O[C@H]1C[C@H](N)[C@H](O)[C@H](C)O1 [doxorubicin, reference compound] | – | – | – | – | – | – | 0.42 µg/mL (≈ 0.773 µM) | 0.45 µg/mL (≈ 0.828 µM) | 0.34 µg/mL (≈ 0.626 µM) | 0.46 µg/mL (≈ 0.846 µM) | 0.19 µg/mL (≈ 0.35 µM) | 0.77 µg/mL (≈ 1.42 µM)
10 | CCCCOC1CC(=O)[C@]2(C)[C@H]3CCC4=C(C[C@@H](O)[C@@]4(C)[C@H](C)[C@H]4CC(C)=C(C)C(=O)O4)[C@@H]3C[C@H]3O[C@]32[C@H]1O (stereo partly drawn) [Compound 5, Tubocapsenolide E] | 15.94 µg/mL (≈ 29.4 µM) | 13.20 µg/mL (≈ 24.3 µM) | >20 µg/mL | 12.31 µg/mL (≈ 22.7 µM) | 17.50 µg/mL (≈ 32.2 µM) | – | – | – | – | – | – | –
11 | CC1=C(C)C(=O)O[C@@H]([C@@H](C)[C@@]2(C)C3=C(C[C@H]2O)[C@@H]2C[C@H]4O[C@]45[C@@H](O)C(O)CC(=O)[C@]5(C)[C@H]2CC3)C1 (stereo partly drawn) [Compound 3, Tubocapsenolide C] | 7.06 µg/mL (≈ 14.5 µM) | >20 µg/mL | >20 µg/mL | 15.93 µg/mL (≈ 32.7 µM) | >20 µg/mL | – | – | – | – | – | – | –
12 | C[C@@]12CC([C@@]3(O)[C@H](O)C[C@H]4[C@@H]5C[C@H]6O[C@]67[C@@H](O)C=CC(=O)[C@]7(C)[C@H]5CC[C@@]43C)[C@@H](C1)OC(=O)[C@]2(C)O (stereo partly drawn) [Compound 21, Anomanolide C] | 2.80 µg/mL (≈ 5.57 µM) | 1.85 µg/mL (≈ 3.68 µM) | 8.01 µg/mL (≈ 15.9 µM) | 4.41 µg/mL (≈ 8.77 µM) | 1.58 µg/mL (≈ 3.14 µM) | – | – | – | – | – | – | –
13 | COC1CC(=O)[C@]2(C)[C@H]3CC[C@]4(C)[C@@H]([C@@](C)(O)[C@H]5CC(C)=C(C)C(=O)O5)CC[C@H]4[C@@H]3C[C@H]3O[C@]32[C@H]1O (stereo partly drawn) [Compound 16, iso-Tubocapsanolide G] | 4.73 µg/mL (≈ 9.41 µM) | 7.63 µg/mL (≈ 15.2 µM) | >20 µg/mL | 5.99 µg/mL (≈ 11.9 µM) | 8.18 µg/mL (≈ 16.3 µM) | – | – | – | – | – | – | –
14 | C[C@@]12CC([C@@]3(O)[C@H](O)C[C@H]4[C@@H]5C[C@H](Cl)[C@]6(O)[C@@H](O)C=CC(=O)[C@]6(C)[C@H]5CC[C@@]43C)[C@@H](C1)OC(=O)[C@]2(C)O (stereo partly drawn) [Compound 22, Anomanolide D] | >20 µg/mL | 19.03 µg/mL (≈ 35.3 µM) | >20 µg/mL | >20 µg/mL | >20 µg/mL | – | – | – | – | – | – | –
15 | C[C@@]12CC([C@@]3(O)[C@H](O)C[C@H]4[C@@H]5CC[C@]6(O)[C@@H](O)C=CC(=O)[C@]6(C)[C@H]5CC[C@@]43C)[C@@H](C1)OC(=O)[C@]2(C)O (stereo partly drawn) [Compound 24, Anomanolide F] | >20 µg/mL | >20 µg/mL | >20 µg/mL | >20 µg/mL | >20 µg/mL | – | – | – | – | – | – | –
16 | CC1=C(C)C(=O)O[C@@H]([C@@H](C)[C@@]2(C)C3=C(C[C@H]2O)[C@@H]2C[C@H](O)[C@]4(O)[C@@H](O)C=CC(=O)[C@]4(C)[C@H]2CC3)C1 [Compound 6, Tubocapsenolide F] | 6.04 µg/mL (≈ 12.4 µM) | 15.07 µg/mL (≈ 31 µM) | 14.71 µg/mL (≈ 30.2 µM) | >20 µg/mL | 8.41 µg/mL (≈ 17.3 µM) | – | – | – | – | – | – | –
17 | COC1CC(=O)[C@]2(C)[C@H]3CC[C@@]4(C)[C@@H](CC[C@]4(O)[C@H](C)[C@H]4CC(C)=C(C)C(=O)O4)[C@@H]3C[C@H]3O[C@]32[C@H]1O (stereo partly drawn) [Compound 15, Tubocapsanolide G] | >20 µg/mL | >20 µg/mL | >20 µg/mL | 17.55 µg/mL (≈ 34.9 µM) | >20 µg/mL | – | – | – | – | – | – | –
18 | C[C@@]12CC([C@@]3(O)[C@H](O)C[C@H]4[C@@H]5C[C@H](O)[C@]6(O)CC=CC(=O)[C@]6(C)[C@H]5CC[C@@]43C)[C@@H](C1)OC(=O)[C@]2(C)O (stereo partly drawn) [Compound 23, Anomanolide E] | >20 µg/mL | >20 µg/mL | >20 µg/mL | >20 µg/mL | >20 µg/mL | – | – | – | – | – | – | –

— US20090088412A1, “COMPOSITION FOR TREATING CANCER CELLS AND PREPARATION METHOD THEREOF” (KAOHSIUNG MEDICAL UNIVERSITY, priority 2007, published 2009)
